Data: patent publication US20230257715A1, “COMPOSITIONS AND METHODS FOR REGULATING ENTEROENDOCRINE CELL DIFFERENTIATION AND USES THEREOF” (The Children's Medical Center Corporation, priority 2020, published 2023)
“And” between values parts separate entries of the source, which are not always exact repeats. Identical values can stand only once. “Also recorded” adds a separate entry of the source.

How the values were obtained:
Assay type in all cases: cell-based
[1] = tested on: human duodenal enteroids; assay: Immunofluorescence staining of CHGA, percentage of CHGA-positive enteroids
Method: Immunofluorescence staining was performed as previously described with minor modifications (Dekkers J F, Alieva M, Wellens L M, et al. Nat Protoc 2019; 14:1l756-1771)^32. Organoids were grown in and isolated from Matrigel® as noted above. 1-3 wells from a 24-well plate were washed in 200 μL of 1× phosphate-buffered saline (PBS) and moved in suspension to a 1.5 mL microcentrifuge tube. Each tube was centrifuged at 800×g for 5 minutes at 4° C. to pellet organoids. PBS was aspirated, and organoids were fixed in 200 μL of 4% paraformaldehyde (PFA) for 20 minutes on ice, shaking. Each tube was centrifuged again as above, and PFA was aspirated. The organoids were then resuspended in 500 μL of 0.3% Triton-X in PBS and moved to a 48-well plate for the remaining steps. The organoids were permeabilized for 30 minutes at room temperature, shaking. Between each step, organoids were allowed to settle to the bottom of each well, the plate was angled, and the solution aspirated by careful pipetting. Organoids were then blocked with 5% bovine serum albumin in PBS for 1.5 hours at room temperature, shaking. This was followed by three five-minute washes in 500 μL of PBS at room temperature, shaking. […]
(§1) This technique was adapted from a previously described method (Borten M A, Bajikar S S, Sasaki N, et al. Sci Rep 2018; 8:5319)^69. […] Any remaining clumped enteroids were manually separated prior to quantification. […]

[2] = tested on: human duodenal enteroids; assay: Immunofluorescence staining of hormones (SST, 5HT, GIP, CCK) in enteroids; details: 14-day protocol
Method: Immunofluorescence staining was performed as previously described with minor modifications (Dekkers J F, Alieva M, Wellens L M, et al. Nat Protoc 2019; 14:1l756-1771)^32. Organoids were grown in and isolated from Matrigel® as noted above. 1-3 wells from a 24-well plate were washed in 200 μL of 1× phosphate-buffered saline (PBS) and moved in suspension to a 1.5 mL microcentrifuge tube. Each tube was centrifuged at 800×g for 5 minutes at 4° C. to pellet organoids. PBS was aspirated, and organoids were fixed in 200 μL of 4% paraformaldehyde (PFA) for 20 minutes on ice, shaking. Each tube was centrifuged again as above, and PFA was aspirated. The organoids were then resuspended in 500 μL of 0.3% Triton-X in PBS and moved to a 48-well plate for the remaining steps. The organoids were permeabilized for 30 minutes at room temperature, shaking. Between each step, organoids were allowed to settle to the bottom of each well, the plate was angled, and the solution aspirated by careful pipetting. Organoids were then blocked with 5% bovine serum albumin in PBS for 1.5 hours at room temperature, shaking. This was followed by three five-minute washes in 500 μL of PBS at room temperature, shaking.
Each well was then incubated in 200 μL of primary antibodies diluted in 5% BSA/0.1% Trition-X in PBS at 4° C. overnight. This was followed by five washes in 500 μL of 0.1% Triton-X in PBS for 15 minutes each at room temperature, shaking. 200 μL of secondary antibodies, including Alexa Fluor 488- or 647-conjugated anti-mouse (Invitrogen, A-21202, or A-31571, 1:400), Alexa Fluor 488-conjugated anti-rat (Invitrogen, A-21208, 1:400), Alexa Fluor 488-conjugated anti-goat (Invitrogen, A-11055, 1:400) or Alexa Fluor 647-conjugated anti-rabbit (Invitrogen, A-31573, 1:400), diluted in 0.1% Triton-X in PBS, which were then added to each well and incubated for two hours at room temperature, shaking. Organoids were then washed as above, then moved to new 1.5 mL centrifuge tubes. During the last wash, 4′,6-diamidino-2-phenylindole (DAPI, Life Technologies, D1306) was added at a concentration of 1:1000 for nuclear staining. Organoids were then centrifuged at 1000×g for 5 minutes at 4° C. to assist in removal of as much PBS as possible. Slides were prepared by drawing three circles with a hydrophobic pen (Vector Laboratories, H-4000). Enteroids were then resuspended in 20 μL of Prolong Gold Antifade mountant (Life Technologies, P36930), and droplets placed within hydrophobic circles. […]
as §1

[3] = tested on: human duodenal enteroids; assay: Hormone ELISA (5HT, GIP) of enteroid conditioned media; details: last two days of differentiation
Method: Hormone quantification for GIP (MilliporeSigma, […]), GLP-1, PYY, and serotonin (Eagle Biosciences/DLD Diagnostika GmbH, SER39-KO1) and were performed using kits and following manufacturer's protocols. For these experiments, organoids were grown in 48-well plates to aid in concentrating the hormone of interest. Conditioned media was taken on day 14 of differentiation. For GIP quantification, Diprotin A (Tocris, 6019, 100 μM), a dipeptidyl peptidase 4 inhibitor, was added daily to the media for the last two days of differentiation to prevent GIP and GLP-1 degradation. For hormone induction studies, forskolin (Fsk) (10 μM) was added to fresh media 24-hours prior to conditioned media being taken. As an additional control, differentiation media not exposed to cells was also evaluated. This value was then subtracted from each experimental sample.

CCn1cc(C(=O)O)c(=O)c2c(N)c(F)c(NC3CCCCC3)cc21 [AS, AS1842856]
CHGA expression by immunofluorescence staining (whole well, qualitative) ([1]; FIG. 5B legend): more | percentage of enteroids containing CHGA+ cells (immunofluorescence) ([1]; enteroids, 14-day protocol): 85% and 82% | percentage of CCK-positive enteroids [2]: 4.5% | percentage of GIP-positive enteroids [2]: 53% | percentage of enteroids containing SST-positive cells [2]: 42% | percentage of enteroids with positive 5HT staining [2]: 75% | 5HT secretion (ELISA of conditioned media) [3]: promoted serotonin (5HT) production and secretion; also recorded: higher levels of 5HT secretion than all other conditions | GIP secretion (ELISA of conditioned media) [3]: no secretion of GIP
